# Test results from US20230107039A1, “SOFT CHEWABLE FORMED BODY FOR THE ADMINISTRATION TO ANIMALS” (Bayer Animal Health GmbH, priority 2020, published 2023).
# Experiment: Solubility in a mixture of water and glycerol
# Assay type: physicochemical
# Details: experimental studies, no figures given
smiles,measurement,value
"O=C(C1CCCCC1)N1CC(=O)N2CCc3ccccc3C2C1 (racemic) [praziquantel, (RS)-2-(Cyclohexylcarbonyl)-2,3,4,6,7,11b-hexahydro-1H-pyrazino[2,1-a]isochinoline-4-on]",solubility in a mixture of water and glycerol,high solubility
